Data as given in publication PMC7616177, “From structure to clinic: Design of a muscarinic M1 receptor agonist with the potential to treat Alzheimer’s disease” (Cell, 2021).

How the values were obtained:
Wistar rats [1] = assay: Scopolamine-induced amnesia in passive avoidance; format: in vivo, rat
Method: Male adult Wistar rats (Harlan, UK; approximately 11 weeks of age) were acclimatised to the experimental rooms for three days (study days 1-3) and handled for a further two days (study days 4 and 5) prior to the experiment.
Donepezil (0.01 and 0.1 mg/kg) was administered via intraperitoneal injection (in saline) 60 min prior to training. Rats were trained in a single-trial, step-through, light-dark passive avoidance paradigm. The training apparatus consisted of a chamber 300 mm in length, 260 mm wide, and 270 mm in height. The front and top were transparent, allowing the experimenter to observe the behavior of the animal inside the apparatus. The chamber was divided into two compartments, separated by a central shutter that contained a small opening (50 mm wide and 75 mm high) set close to the front of the chamber. The smaller of the compartments measured 90 mm in width and contained a low-light (~200 lux) illumination source. The larger compartment measured 210 mm in width and was not illuminated. The floor of this dark compartment consisted of a grid of 16 horizontal stainless-steel bars that were 5 mm in diameter and spaced 12.5 mm apart. A current generator supplied 0.75 mA to the grid floor, which was scrambled once every 0.5 s across the 16 bars.
Animals were placed facing the rear of the light compartment of the apparatus, immediately after which, spontaneous behavior was assessed. The timer was started once the animal completely turned to face the front of the chamber. Latency to enter the dark chamber was recorded, and having completely entered the dark compartment foot shock was administered to the animal, which immediately returned to the light compartment. Animals were then returned to their home cages. Between each training session, both compartments of the chamber were cleaned to remove any confounding olfactory cues. Vehicle (saline) or scopolamine (1 mg/kg) was administered to rats 6 hours after training. Recall of the inhibitory stimulus was evaluated 24 hour post-training on study day 7, by returning the animal into the light chamber and recording their latency to enter the dark chamber, a criterion time of 600 s was employed. Observation of the animals was made by overhead video camera linked to a monitor behind a screened area. Animal treatment was blinded to the observer.

Wistar rats [2] = assay: Open field exploratory behaviour; format: in vivo; conditions: rat
Method: During the rat passive avoidance testing, open field exploratory behavior was measured on study days 4 and 5 (acclimatisation and handling), 6 (training) and 7 (recall). The open field apparatus consisted of black-painted Perspex 620 mm^2 with walls 300 mm high. Locomotor activity, measured as the distance traveled in a 300 s period, as well as incidences of rearing and grooming were recorded, using Ethovision XT tracking software (Noldus UK).

human M1 receptor = target: T1, human M1 receptor (Homo sapiens, UniProt P11229); assay: Label-free dynamic mass redistribution in CHO cells overexpressing human M1-receptor; format: cell-based
T1 construct: expressed in transfected cells
T1 sequence (P11229 1-460): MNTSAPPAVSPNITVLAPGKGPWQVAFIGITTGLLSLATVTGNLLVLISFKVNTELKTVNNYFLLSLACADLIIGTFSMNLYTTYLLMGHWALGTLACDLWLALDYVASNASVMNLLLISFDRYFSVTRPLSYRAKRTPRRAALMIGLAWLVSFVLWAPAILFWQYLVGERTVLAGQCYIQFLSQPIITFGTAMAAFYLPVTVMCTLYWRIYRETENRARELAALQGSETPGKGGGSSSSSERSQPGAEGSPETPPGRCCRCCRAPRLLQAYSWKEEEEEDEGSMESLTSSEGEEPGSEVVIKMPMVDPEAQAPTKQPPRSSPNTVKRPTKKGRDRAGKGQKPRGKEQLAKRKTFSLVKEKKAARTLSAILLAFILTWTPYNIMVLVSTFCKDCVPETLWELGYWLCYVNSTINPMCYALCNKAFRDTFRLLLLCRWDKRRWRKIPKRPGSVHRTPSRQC

M4-receptor = target: T2, M4-receptor (Homo sapiens, UniProt P08173); assay: [3H]-NMS equilibrium radioligand binding, M4
T2 sequence (P08173 1-479): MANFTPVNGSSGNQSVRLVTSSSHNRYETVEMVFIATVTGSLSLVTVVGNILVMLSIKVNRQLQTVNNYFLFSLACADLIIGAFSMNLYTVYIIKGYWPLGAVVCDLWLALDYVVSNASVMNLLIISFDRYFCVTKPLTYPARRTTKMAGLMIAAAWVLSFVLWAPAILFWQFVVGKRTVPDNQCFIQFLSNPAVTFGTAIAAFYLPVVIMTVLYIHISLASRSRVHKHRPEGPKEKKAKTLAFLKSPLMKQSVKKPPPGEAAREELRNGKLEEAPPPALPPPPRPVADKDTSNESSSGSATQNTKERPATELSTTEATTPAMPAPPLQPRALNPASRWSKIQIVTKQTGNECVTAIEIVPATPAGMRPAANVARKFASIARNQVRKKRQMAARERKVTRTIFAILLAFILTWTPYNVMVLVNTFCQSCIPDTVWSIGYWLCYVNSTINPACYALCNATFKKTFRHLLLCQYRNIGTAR
Method: Non-specific binding (NSB) was determined in the presence of 1 μM atropine). Reactions were terminated by rapid filtration onto GF/B filter paper (Whatman, Maidstone, UK) and three washes with 3 mL ice-cold 0.9% NaCl using a Brandel harvester (M-24TI; Brandel, Fort Lauderdale, FL). Membrane bound radioactivity was determined by liquid scintillation (Ultima Gold; PerkinElmer) counting.
Data was analyzed using PRISM (GraphPad). For saturation binding, non-specific and total binding data were analyzed to a one site binding model. DPM was converted to fmol/mg to compare across constructs. […] […] The Cheng Prusoff equation was used to estimate pKi ([Cheng and Prusoff, 1973]).

Wistar rats [3] = assay: Novel object recognition; format: in vivo, rat
Method: Male adult Wistar rats (Harlan, UK; approximately 11 weeks of age) were handled for two days prior to the experiment. […] Donepezil (0.1 mg/kg) and galanthamine (3 mg/kg) were administered via intraperitoneal injection (in saline) 60 min prior to training. Following a 10-min habituation period, each rat was placed into the test arena comprising an open-field arena in the presence of two identical plastic shapes and allowed to explore for 5 min. The rat was then returned to its home cage. After 24 hours, the rat was returned to the test arena in the presence of one familiar object, and one novel object. The time exploring each object was recorded using image analysis software (Ethovision XT, Noldus, UK).

M3-receptor = target: T3, M3-receptor (Homo sapiens, UniProt P20309); assay: M3-receptor functional agonist assay; format: cell-based
T3 construct: expressed in transfected cells
T3 sequence (P20309 whole entry): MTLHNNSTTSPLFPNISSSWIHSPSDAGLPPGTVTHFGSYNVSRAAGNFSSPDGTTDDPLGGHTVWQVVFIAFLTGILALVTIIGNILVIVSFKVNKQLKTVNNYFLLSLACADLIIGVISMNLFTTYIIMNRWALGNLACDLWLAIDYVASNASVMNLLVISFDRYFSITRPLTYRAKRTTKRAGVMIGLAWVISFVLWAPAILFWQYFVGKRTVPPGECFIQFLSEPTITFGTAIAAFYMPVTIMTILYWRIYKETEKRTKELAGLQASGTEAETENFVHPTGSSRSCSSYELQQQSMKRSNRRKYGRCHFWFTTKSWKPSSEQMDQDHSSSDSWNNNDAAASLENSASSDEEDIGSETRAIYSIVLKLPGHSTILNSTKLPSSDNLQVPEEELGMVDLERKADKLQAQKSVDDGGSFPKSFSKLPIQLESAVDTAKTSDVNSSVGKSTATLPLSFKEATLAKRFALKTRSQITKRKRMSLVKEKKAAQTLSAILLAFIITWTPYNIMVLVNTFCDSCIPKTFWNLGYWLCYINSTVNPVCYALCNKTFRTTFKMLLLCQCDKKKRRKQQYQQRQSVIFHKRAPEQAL
Method: Functional assays were performed using the Alphascreen Surefire phopho-ERK1/2 assay. […] Once adhered, cells were serum starved overnight. Agonist stimulation was performed by the addition of […] agonist to the cells for a pre-optimized 5 min period (37°C). Media was removed and 50 μl of lysis buffer added. After 15 min a 4 μl sample was transferred to a 384-well plate and 7 μl of detection mixture added.

CCOC(=O)N1CCC[C@H](N2CCC(C(=O)NC3(C)CCC3)CC2)CC1 [HTL9936, ethyl (S)-4-(4-((1-methylcyclobutyl)carbamoyl)piperidin-1-yl)azepane-1-carboxylate]
Maximal response compared with donepezil 0.1 mg/kg (Wistar rats [1]; rat passive avoidance): equivalent to that obtained using the clinically approved acetylcholinesterase inhibitor donepezil
Response alone (Wistar rats [1]; rat passive avoidance, HTL9936 3 mg/kg): no response alone
Effect on scopolamine-induced amnesia (Wistar rats [1]; rat, 3, 10 or 30 mg/kg p.o., scopolamine 1 mg/kg i.p.): reversed in a dose-dependent manner
Open-field exploratory behavior (Wistar rats [2]): no difference in effect
EC50 (human M1 receptor): 0.079 µM
Ki (M4-receptor): 3.98 µM
Effective dose (Wistar rats [3]; rat novel object recognition, p.o.): 10 mg/kg
Effect compared with positive controls donepezil and galantamine (Wistar rats [3]; rat, 10 mg/kg p.o.): significantly better than the positive controls
EC50 (M3-receptor): > 20 µM
M3-receptor agonist activity (M3-receptor): no detectable agonism
